Laboratory results: patent US20200245616A1, “A Disinfectant Composition with Extended Antimicrobial Effects” (Siamons International Inc., priority 2017, published 2020)

Tests used:
Assay type in all cases: cell-based
[1] = tested on: Staphylococcus aureus ATCC 6538; assay: AOAC Official Method 961.02 Germicidal Spray Method, bacteria on glass carriers; conditions: for Staphylococcus aureus Growth Rate: 10 min contact
Text: (§1) In this method, a series of glass slides (“carriers”) were inoculated with a representative test organism and the carriers were dried under ambient conditions. The dried organisms on the surface of the carrier were then sequentially treated with the composition of the present disclosure in the form of a spray product and were exposed for a pre-determined exposure time. After exposure, the carriers were sequentially transferred to a liquid subculture medium specifically selected to neutralize the composition of the present disclosure and to recover any surviving test organism. The carriers were incubated and visually examined for the presence or absence of growth. […] Required organisms for a disinfection claim include but are not limited to Staphylococcus aureus, Salmonella choleraesuis and Pseudomonas aeruginosa.
(§2) Method Adapted to the Preparation of Bacteria Cultures from −80° C. Freshly Recovered Stock. […] Added 10 μL of the thawed stock to a tube containing 10 mL synthetic broth and then vortexed to mix. Discarded the rest of cryovial stock. • Incubated the tube at 36 ±1° C. for 24 hours (h). Briefly vortexed the 24 h culture prior to transfer. For this final subculture step, inoculated two 20×150 mm tubes containing 10 mL synthetic broth with […] of the 24 h synthetic broth culture. • Incubated 48 h at 36±1° C. Using a Vortex-style mixer, mixed synthetic broth test cultures 3-4 seconds and let stand 10 minutes at room temperature before continuing. Removed the upper portion of each culture, leaving behind any debris or clumps, and transferred to a sterile tube. Titrated the culture by plating on synthetic agar plates, and diluted to 5×10^8 Colony Forming Units (CFU) per mL.
(§3) High volume screening studies were conducted in some cases where only 4 organism-inoculated carriers were treated at specified concentrations of CTAB. Vortex-mixed the inoculum periodically during inoculation of the carriers. • Immediately spread the inoculum uniformly over the majority of the carrier surface using a sterile loop. […] Covered dish immediately and repeated operation until 64 carriers had been prepared for the test. Once all of the carriers had been inoculated, placed in incubator at 37° C. for 40 minutes until dry.
(§4) • After the test organisms were dried on the surface of the carrier, each carrier was sprayed with the respective disinfection formulae 10 times in 10 seconds at a distance of 30 cm. • Treatment interval was timed. Ten (10) minutes after each carrier had been sprayed by the disinfectant, the excess liquid was removed and the carriers were transferred in a sequentially timed fashion into the culture tubes containing 20 ml neutralizer (Letheen Broth with 0.07% Lecithin/0.5% Tween 80/0.1% Sodium Thiosulfate) to neutralize the disinfectant. […] The percentage of the treated carriers showing growth after 48 hours was recorded.

[2] = tested on: Penicillium variable ATCC 32333; assay: AOAC Official Method 961.02 Germicidal Spray Method, fungal conidia on glass carriers; conditions: 10 min contact
Text: as §1
(§5) The conidiospore suspension was macerated in a tissue grinder. The suspension was filtered through sterile cotton to remove the hyphae and hyphal fragments.
(§6) Vortex-mixed the inoculum periodically during inoculation of the carriers. • Immediately spread the inoculum uniformly over the majority of the carrier surface using a sterile loop. […] High volume screening studies were conducted in some cases where only 4 organism-inoculated carriers were treated at specified concentrations of CTAB. Once all of the carriers had been inoculated, the carriers were placed in an incubator at 37° C. for 40 minutes until completely dry.
(§7) • After drying, each carrier was sprayed with the respective disinfection formulae 10 times in 10 seconds at a distance of 30 cm. • Timed the treatment interval. Ten (10) minutes after each carrier had been exposed to the disinfectant, the excess liquid was removed and the carriers were transferred in a sequentially timed fashion into the culture tubes containing 20 ml neutralization broth (Letheen Broth with 0.07% Lecithin /0.5% Tween 80) to neutralize the disinfectant. • After the carriers were deposited in the respective culture tubes, the tubes were recapped and the cultures were thoroughly resuspended. • Incubated all neutralization tubes at 28 ±1° C. for 14 days. • After 14 days, the cultures within the tubes were examined for growth. The percentage of the treated carriers showing growth was recorded.

[3] = tested on: Aspergillus niger ATCC 6275; assay: as above; conditions: 10 min contact
Text: as §1, §5, §6, §7

[4] = tested on: Trichophyton mentagrophytes ATCC 9533; assay: as above; conditions: 10 min contact
Text: as §1, §5, §6, §7

[5] = tested on: select bacteria and fungal organisms; assay: Germicidal spray disinfection, summary over the tested organisms; conditions: 0.01% QAH in CMC; 10-minute contact time
Method: All experiments were conducted according to the protocol outlined in AOAC Official Method 961.02 (Germicidal Spray Method), which is a carrier-based method used to evaluate disinfection efficacy of aerosol/pump-based spray products and liquid products for registration with regulatory agencies such as the U.S. EPA and Health Canada.
It was expected that if the CTAB was replaced by QAH's of similar structure that the disinfection of selected bacteria and fungal organisms would be similarly achieved. […] In the case of bacteria testing, the experimental procedure was as outlined in Example 1 for disinfection of bacterial cultures. In the case of fungal organisms, the experimental procedure was as outlined in Example 1 for the preparation of fungal cultures.

[6] = tested on: Pseudomonas aeruginosa ATCC 15442; assay: AOAC Official Method 961.02 Germicidal Spray Method, bacteria on glass carriers; conditions: 10 min contact
Text: as §1, §2, §3, §4

Row | Compound | Staphylococcus aureus Growth Rate ([1]; CMC + QAH, QAH 0.010%) | Staphylococcus aureus Growth Rate ([1]; CMC + QAH, QAH 0.100%) | Staphylococcus aureus Growth Rate ([1]; CMC + QAH, QAH 1.000%) | Staphylococcus aureus Growth Rate ([1]; Water + QAH, QAH 0.010%) | Staphylococcus aureus Growth Rate ([1]; Water + QAH, QAH 0.100%) | Staphylococcus aureus Growth Rate ([1]; Water + QAH, QAH 1.000%) | Penicillium variable Growth Rate ([2]; CMC + QAH, QAH 0.010%) | Penicillium variable Growth Rate ([2]; CMC + QAH, QAH 0.100%) | Penicillium variable Growth Rate ([2]; CMC + QAH, QAH 1.000%) | Penicillium variable Growth Rate ([2]; Water + QAH, QAH 0.010%) | Penicillium variable Growth Rate ([2]; Water + QAH, QAH 0.100%) | Penicillium variable Growth Rate ([2]; Water + QAH, QAH 1.000%) | Aspergillus niger Growth Rate ([3]; CMC + QAH, QAH 0.010%) | Aspergillus niger Growth Rate ([3]; CMC + QAH, QAH 0.100%) | Aspergillus niger Growth Rate ([3]; CMC + QAH, QAH 1.000%) | Trichophyton mentagrophytes Growth Rate ([4]; CMC + QAH, QAH 0.010%) | Trichophyton mentagrophytes Growth Rate ([4]; CMC + QAH, QAH 0.100%) | Trichophyton mentagrophytes Growth Rate ([4]; CMC + QAH, QAH 1.000%) | Trichophyton mentagrophytes Growth Rate ([4]; Water + QAH, QAH 0.010%) | Trichophyton mentagrophytes Growth Rate ([4]; Water + QAH, QAH 0.100%) | further results
1 | CC[N+](CC)(CC)Cc1ccccc1.[Cl-] [BTEAC, Benzyltriethylammonium chloride] | 100% | 100% | 75% | 100% | 100% | 100% |  |  |  |  |  |  |  |  |  |  |  |  |  |  | killing Staphylococcus aureus ([1]; 1.0% QAH): incapable of killing
2 | CC(C)(C)CC(C)(C)c1ccc(OCCOCC[N+](C)(C)Cc2ccccc2)cc1 [BZT, Benzethonium chloride] | 0% | 0% | 100% | 100% | 25% | 0% | 0% | 0% | 0% | 0% | 0% | 0% | 50% | 0% | 0% | 0% | 0% | 0% | 0% | 0% | Trichophyton mentagrophytes Growth Rate ([4]; Water + QAH, QAH 1.000%): 0%; effectiveness against the target organisms [5]: remarkable effectiveness; Pseudomonas aeruginosa Growth Rate ([6]; CMC + QAH, QAH 0.010%): 0%; Pseudomonas aeruginosa Growth Rate ([6]; CMC + QAH, QAH 0.100%): 0%; Pseudomonas aeruginosa Growth Rate ([6]; CMC + QAH, QAH 1.000%): 0%; Pseudomonas aeruginosa Growth Rate ([6]; Water + QAH, QAH 0.010%): 100%; Pseudomonas aeruginosa Growth Rate ([6]; Water + QAH, QAH 0.100%): 100%; Pseudomonas aeruginosa Growth Rate ([6]; Water + QAH, QAH 1.000%): 100%
3 | CCCCCCCCCCCCCCCC[N+](C)(C)Cc1ccccc1.[Cl-] [BDAC, Benzyl-dimethylhexadecylammonium chloride] | 0% | 0% | 0% | 100% | 0% | 0% | 0% | 0% | 0% | 0% | 0% | 0% | 100% | 25% | 0% | 0% | 0% | 0% | 0% | 0% | Aspergillus niger Growth Rate ([3]; Water + QAH, QAH 0.010%): 100%; Aspergillus niger Growth Rate ([3]; Water + QAH, QAH 0.100%): 75%; Aspergillus niger Growth Rate ([3]; Water + QAH, QAH 1.000%): 0%; Trichophyton mentagrophytes Growth Rate ([4]; Water + QAH, QAH 1.000%): 0%; effectiveness against the target organisms [5]: remarkable effectiveness; Pseudomonas aeruginosa Growth Rate ([6]; CMC + QAH, QAH 0.010%): 0%; Pseudomonas aeruginosa Growth Rate ([6]; CMC + QAH, QAH 0.100%): 0%; Pseudomonas aeruginosa Growth Rate ([6]; CMC + QAH, QAH 1.000%): 0%; Pseudomonas aeruginosa Growth Rate ([6]; Water + QAH, QAH 0.010%): 100%; Pseudomonas aeruginosa Growth Rate ([6]; Water + QAH, QAH 0.100%): 25%; Pseudomonas aeruginosa Growth Rate ([6]; Water + QAH, QAH 1.000%): 25%
